# Test system: Human umbilical vein endothelial cells (HUVECs)
# Assay: eNOS activity analysis: NO, ONOO− and NO/ONOO− release from HUVECs of 50 genotyped donors in response to LA-419 (Example 2)
# Format: cell-based
# Conditions: LA-419 5 μM
# Procedure: Concurrent measurements of NO and ONOO^− were carried out with tandem electrochemical nanosensors combined into one working unit with a total diameter of 200-500 nm (FIG. 1). Their design was based on previously developed and well-characterized chemically modified carbon-fiber technology (Malinski and Taha, 1992; Lvovich and Scheeline, 1997). Each of the nanosensors was made by depositing a sensing material on the tip of a carbon fiber (length 4-5 μm, diameter 0.2-0.5 μm). The fibers were sealed with nonconductive epoxy and electrically connected to copper wires with conductive silver epoxy. A conductive film of polymeric nickel (II) tetrakis(3-methoxy-4-hydroxyphenyl)porphyrin for the NO-sensor and polymeric film of Mn (III) [2.2]paracyclophanylporphyrin was used for the ONOO^−-sensor.
# A module of NO/ONOO^− nanosensors (diameter 1-2 μm) with a platinum wire (0.1 mm) counter electrode and saturated calomel reference electrode (SCE) were applied. Differential pulse voltammetry (DPV) and amperometry were performed with a computer-based Gamry VFP600 multichannel potentiostat. DPV was used to measure the basal NO and ONOO^− concentrations, and amperometry was used to measure changes in NO and ONOO^− concentrations from its basal level with time. The DPV current at the peak potential characteristic for NO oxidation (0.65 V) and ONOO^− reduction (−0.45 V) was directly proportional to the local concentrations of these compounds in the immediate vicinity of the sensor. Linear calibration curves (current vs. concentration) were constructed for each sensor from 10 nM to 3 μM before and after measurements with aliquots of NO and ONOO^− standard solutions, respectively. The detection limit of the sensors was 1.0 nM.
# The quantification of each analyte (concentration in nM) was performed using a maximum current from amperograms and standard calibration curves. A reproducibility of measurements with nanosensors is relatively high (between 5-12%). […] The sensors were slowly raised 5±2 μm from the surface of a single endothelial cell. The eNOS agonist, calcium ionophore A23187 (CaI) as well as the different drugs were then added to the surrounding media at the cell surface with a nanoinjector that was also positioned by a computer controlled-micromanipulator.
# This example describes the genotype-specific response of the three major eNOS variants to 1 μM and 5 μM concentrations of LA-419. The three major genetic polymorphisms studied were the Glu298Asp variant (E298D or 894G→T) in exon 7 of […], the −786T→C variant in the promoter region, and the intron 4 polymorphism (VNTR). All of these variants have possible effects on the cardiovascular system and endothelial dysfunction. For this study, human umbilical vein endothelial cells (HUVECs) from 50 donors between 18 and 32 years of age were used.
# For the analysis several analysis techniques were employed. First, the effect of genotype on NO and ONOO^− release was explored within the different concentrations of LA-419 (control, 1 μM, 5 μM), calculated as the average peak release (nmols/L) of NO, ONOO^−, and NO/ONOO^−. The effect of genotype on the net increase in NO, ONOO^−, and NO/ONOO^− for LA-419 (1 μM and 5 μM) as compared to control was also measured. In addition, an analysis was done on the effect of genotype on the % change in NO, ONOO^−, and NO/ONOO^− production for LA-419 (1 μM and 5 μM), calculated as:
# % Change=[(avg. LA-419−avg. control)/(avg. control)]*100
# Finally, an evaluation was undertaken concerning the effect of genotype on the production of NO, ONOO^−, and NO/ONOO^− as the fold difference of control for LA-419 (1 μM and 5 μM), calculated as:
# Fold Difference=(avg. LA-419)/(avg. control)
# Within each calculation technique the results were compared for statistical significance using a non-parametric ANOVA Kruskal-Wallace test or a non-parametric Mann-Whitney U test. Statistical significance was set at a p-value <0.05 in a two-tailed distribution. […]
# [1] = HUVECs Intron 4 variant b/a, a/a, c/c
# [2] = HUVECs T-786C variant T/C & C/C
structure (smiles),measurement,setting,value
"CC(=O)SC1COC2C(O[N+](=O)[O-])COC12 (stereo not drawn) [LA-419, S-(6-Nitro-oxi-hexahydro-furo[3,2-b]furan-3-1-il)thioacetate]",Peak release ONOO− (mean ± sd),HUVECs G894T variant G/G,288.82 (78.22) nmols/L
same,"% Change Ratio, % Change NO/% Change ONOO− (mean ± sd)",HUVECs G894T variant G/T,−0.88 (0.60)
same,Net increase over control NO (mean ± sd),HUVECs G894T variant G/T,45.87 (19.24) nmols/L
same,Net increase over control NO/ONOO− (mean ± sd),HUVECs G894T variant G/T,−0.94 (0.88)
same,Net increase over control ONOO− (mean ± sd),HUVECs G894T variant G/T,−65.80 (26.77) nmols/L
same,Peak release NO (mean ± sd),HUVECs G894T variant G/T,400.63 (80.27) nmols/L
same,Peak release NO/ONOO− (mean ± sd),HUVECs G894T variant G/T,1.44 (0.49)
same,Peak release ONOO− (mean ± sd),HUVECs G894T variant G/T,300.15 (75.86) nmols/L
same,Net increase over control NO (mean ± sd),HUVECs G894T variant G/T & T/T,45.12 (21.46) nmols/L
same,Net increase over control NO/ONOO− (mean ± sd),HUVECs G894T variant G/T & T/T,−0.91 (0.90)
same,Net increase over control ONOO− (mean ± sd),HUVECs G894T variant G/T & T/T,−69.51 (27.46) nmols/L
same,Peak release NO (mean ± sd),HUVECs G894T variant G/T & T/T,398.42 (88.37) nmols/L
same,Peak release NO/ONOO− (mean ± sd),HUVECs G894T variant G/T & T/T,1.39 (0.53)
same,Peak release ONOO− (mean ± sd),HUVECs G894T variant G/T & T/T,314.55 (84.72) nmols/L
same,"% Change Ratio, % Change NO/% Change ONOO− (mean ± sd)",HUVECs G894T variant T/T,−0.80 (0.73)
same,Net increase over control NO (mean ± sd),HUVECs G894T variant T/T,42.40 (30.77) nmols/L
same,Net increase over control NO/ONOO− (mean ± sd),HUVECs G894T variant T/T,−0.78 (1.05)
same,Net increase over control ONOO− (mean ± sd),HUVECs G894T variant T/T,−82.87 (28.56) nmols/L
same,Peak release NO (mean ± sd),HUVECs G894T variant T/T,390.47 (124.39) nmols/L
same,Peak release NO/ONOO− (mean ± sd),HUVECs G894T variant T/T,1.21 (0.68)
same,Peak release ONOO− (mean ± sd),HUVECs G894T variant T/T,366.40 (103.55) nmols/L
same,Net increase over control NO (mean ± sd),HUVECs Intron 4 variant a/a,52.00 (16.74) nmols/L
same,Net increase over control NO/ONOO− (mean ± sd),HUVECs Intron 4 variant a/a,0.41 (0.19)
same,Net increase over control ONOO− (mean ± sd),HUVECs Intron 4 variant a/a,−63.78 (14.11) nmols/L
same,Peak release NO (mean ± sd),HUVECs Intron 4 variant a/a,438.33 (79.68) nmols/L
same,Peak release NO/ONOO− (mean ± sd),HUVECs Intron 4 variant a/a,1.48 (0.64)
same,Peak release ONOO− (mean ± sd),HUVECs Intron 4 variant a/a,331.22 (117.30) nmols/L
same,Net increase over control NO (mean ± sd),HUVECs Intron 4 variant b/a,54.53 (23.50) nmols/L
same,Net increase over control NO/ONOO− (mean ± sd),HUVECs Intron 4 variant b/a,0.45 (0.22)
same,Net increase over control ONOO− (mean ± sd),HUVECs Intron 4 variant b/a,−72.30 (25.81) nmols/L
same,Peak release NO (mean ± sd),HUVECs Intron 4 variant b/a,375.20 (81.45) nmols/L
same,Peak release NO/ONOO− (mean ± sd),HUVECs Intron 4 variant b/a,1.42 (0.61)
same,Peak release ONOO− (mean ± sd),HUVECs Intron 4 variant b/a,295.73 (85.11) nmols/L
same,Net increase over control NO (mean ± sd),[1],47.30 (22.42) nmols/L
same,Net increase over control NO/ONOO− (mean ± sd),[1],0.44 (0.20)
same,Net increase over control ONOO− (mean ± sd),[1],−72.31 (23.65) nmols/L
same,Peak release NO (mean ± sd),[1],392.83 (80.05) nmols/L
same,Peak release NO/ONOO− (mean ± sd),[1],1.43 (0.57)
same,Peak release ONOO− (mean ± sd),[1],305.67 (86.01) nmols/L
same,Net increase over control NO (mean ± sd),HUVECs Intron 4 variant b/b,47.30 (22.42) nmols/L
same,Net increase over control NO/ONOO− (mean ± sd),HUVECs Intron 4 variant b/b,0.43 (0.20)
same,Net increase over control ONOO− (mean ± sd),HUVECs Intron 4 variant b/b,−70.32 (30.56) nmols/L
same,Peak release NO (mean ± sd),HUVECs Intron 4 variant b/b,400.83 (81.57) nmols/L
same,Peak release NO/ONOO− (mean ± sd),HUVECs Intron 4 variant b/b,1.46 (0.51)
same,Peak release ONOO− (mean ± sd),HUVECs Intron 4 variant b/b,298.99 (79.66) nmols/L
same,Net increase over control NO (mean ± sd),HUVECs Intron 4 variant c/c,64.00 (0) nmols/L
same,Net increase over control NO/ONOO− (mean ± sd),HUVECs Intron 4 variant c/c,0.46 (0)
same,Net increase over control ONOO− (mean ± sd),HUVECs Intron 4 variant c/c,−98.00 (0) nmols/L
same,Peak release NO (mean ± sd),HUVECs Intron 4 variant c/c,432.67 (0) nmols/L
same,Peak release NO/ONOO− (mean ± sd),HUVECs Intron 4 variant c/c,1.32 (0)
same,Peak release ONOO− (mean ± sd),HUVECs Intron 4 variant c/c,328.33 (0) nmols/L
same,"% Change Ratio, % Change NO/% Change ONOO− (mean ± sd)",HUVECs T-786C variant C/C,−0.62 (0.39)
same,Net increase over control NO (mean ± sd),HUVECs T-786C variant C/C,38.00 (17.39) nmols/L
same,Net increase over control NO/ONOO− (mean ± sd),HUVECs T-786C variant C/C,−0.52 (0.36)
same,Net increase over control ONOO− (mean ± sd),HUVECs T-786C variant C/C,−82.58 (26.16) nmols/L
same,Peak release NO (mean ± sd),HUVECs T-786C variant C/C,370.17 (86.78) nmols/L
same,Peak release NO/ONOO− (mean ± sd),HUVECs T-786C variant C/C,1.32 (0.71)
same,Peak release ONOO− (mean ± sd),HUVECs T-786C variant C/C,322.33 (110.70) nmols/L
same,"% Change Ratio, % Change NO/% Change ONOO− (mean ± sd)",HUVECs T-786C variant T/C,−0.81 (0.56)
same,Net increase over control NO (mean ± sd),HUVECs T-786C variant T/C,47.26 (23.70) nmols/L
same,Net increase over control NO/ONOO− (mean ± sd),HUVECs T-786C variant T/C,−0.86 (0.80)
same,Net increase over control ONOO− (mean ± sd),HUVECs T-786C variant T/C,−65.86 (23.41) nmols/L
same,Peak release NO (mean ± sd),HUVECs T-786C variant T/C,396.81 (95.72) nmols/L
same,Peak release NO/ONOO− (mean ± sd),HUVECs T-786C variant T/C,1.41 (0.56)
same,Peak release ONOO− (mean ± sd),HUVECs T-786C variant T/C,310.97 (82.59) nmols/L
same,Net increase over control NO (mean ± sd),[2],45.89 (22.83) nmols/L
same,Net increase over control NO/ONOO− (mean ± sd),[2],−0.81 (0.76)
same,Net increase over control ONOO− (mean ± sd),[2],−68.33 (24.07) nmols/L
same,Peak release NO (mean ± sd),[2],392.86 (93.35) nmols/L
same,Peak release NO/ONOO− (mean ± sd),[2],1.39 (0.57)
same,Peak release ONOO− (mean ± sd),[2],312.65 (84.87) nmols/L
same,"% Change Ratio, % Change NO/% Change ONOO− (mean ± sd)",HUVECs T-786C variant T/T,−0.90 (0.47)
same,Net increase over control NO (mean ± sd),HUVECs T-786C variant T/T,55.91 (19.06) nmols/L
same,Net increase over control NO/ONOO− (mean ± sd),HUVECs T-786C variant T/T,−0.95 (0.67)
same,Net increase over control ONOO− (mean ± sd),HUVECs T-786C variant T/T,−76.48 (33.23) nmols/L
same,Peak release NO (mean ± sd),HUVECs T-786C variant T/T,405.83 (58.51) nmols/L
same,Peak release NO/ONOO− (mean ± sd),HUVECs T-786C variant T/T,1.52 (0.45)
same,Peak release ONOO− (mean ± sd),HUVECs T-786C variant T/T,286.47 (76.65) nmols/L
same,"% increase in peak NO generation, range within genotype groups",Table u1,11.6 to 17.4%
same,"increase in NO/OONO− ratio, range over all genotypes",Table u3,37-53%
same,peak release of NO versus control,all genotypes (Table b1),increase
same,"greater net increase in NO, major allele variant vs minor allele carriers","exon 7, p 0.10",22%
same,"greater net increase in NO, major allele variant vs minor allele carriers","promoter, p 0.12",22%

# Source: US20130131161A1, “METHODS AND COMPOSITIONS FOR CARDIOVASCULAR DISEASES AND CONDITIONS” (priority 2009, published 2013)
